Assay results: ChEMBL document CHEMBL5380835, “Discovery of Clinically Used Octenidine as NRAS Repressor That Effectively Inhibits NRAS-Mutant Melanoma” (J Med Chem, 2023)
Active and inactive are the calls of the source. No cut-off for these calls is given here.

Experiments:
SK-MEL-2 [1] = assay: Antitumor activity against human SK-MEL-2 cells xenografted in BALB/c nude mouse assessed as tumor growth inhibition at 10 mg/kg/day, ip by electronic caliper method; assay type: functional, organism-based; conditions: time 30.0 day, TDE = time-dependent effect
SK-MEL-2 [2] = assay: Antitumor activity against human SK-MEL-2 cells xenografted in BALB/c nude mouse assessed as reduction in tumor weight at 10 mg/kg/day, ip administered for 30 days by electronic caliper method; assay type: functional, organism-based; conditions: time 30.0 day
SK-MEL-2 [3] = assay: Antitumor activity against human SK-MEL-2 cells xenografted in BALB/c nude mouse assessed as tumor growth inhibition at 10 mg/kg/day, ip administered for 30 days relative to control; assay type: functional; conditions: SK-MEL-2, 720 h, time 30 day, read-out: TGI
SK-MEL-2 [4] = assay: Antitumor activity against human SK-MEL-2 cells xenografted in BALB/c nude mouse assessed as T/C ratio at 10 mg/kg/day, ip administered for 30 days relative to control; assay type: functional; conditions: time 30 day
SK-MEL-2 [5] = assay: Induction of cell cycle arrest in human SK-MEL-2 cells assessed as accumulation at G2/M phase at 1.5 uM measured after 48 hrs by PI staining based analysis; assay type: functional
SK-MEL-2 [6] = assay: Antiproliferative activity against human SK-MEL-2 cells assessed as inhibition of cell survival upto 50 uM incubated for 24 to 96 hrs by MTT assay; assay type: functional, cell-based; conditions: time 24-96 hrs
SK-MEL-2 [7] = assay: Cytotoxicity against human SK-MEL-2 cells assessed as inhibition of cell viability treated for 48 hrs measured after 24 hrs; assay type: functional, cell-based
SK-MEL-2 [8] = assay: Antitumor activity against human SK-MEL-2 cells xenografted in BALB/c nude mouse assessed as tumor growth inhibition at 1 mg/kg/day, ip by electronic caliper method; assay type: functional, organism-based; conditions: time 30.0 day, TDE = time-dependent effect
[9] = Binding affinity to NRAS RNA G-quadruplex 5'-r(UGUGGGAGGGGCGGGUCUGGG)-3' (unknown origin) by TO displacement assay
SK-MEL-2 [10] = assay: Cytotoxicity against human SK-MEL-2 cells assessed as inhibition of cell viability treated for 48 hrs measured after 48 hrs; assay type: functional, cell-based; conditions: SK-MEL-2, 48 h
SK-MEL-2 [11] = assay: Downregulation of phosphorylated mTOR in human SK-MEL-2 cells expressing NRAS mutant incubated for 48 hrs by Western blot analysis; assay type: functional, cell-based; conditions: dose <= 1.5 µM
SK-MEL-2 [12] = assay: Cytotoxicity against human SK-MEL-2 cells expressing NRAS mutant assessed as cell growth inhibition incubated for 48 hrs by MTT assay; assay type: functional, cell-based; conditions: SK-MEL-2, 48 h
SK-MEL-2 [13] = assay: Cytotoxicity against human SK-MEL-2 cells assessed as cell growth inhibition incubated for 24 hrs by MTT assay; assay type: functional, cell-based; conditions: SK-MEL-2, 24 h
SK-MEL-2 [14] = assay: Cytotoxicity against human SK-MEL-2 cells assessed as inhibition of cell viability treated for 72 hrs measured after 24 hrs; assay type: functional, cell-based
SK-MEL-2 [15] = assay: Downregulation of NRAS expression in human SK-MEL-2 cells xenografted in BALB/c nude mouse at 1 mg/kg/day, ip administered for 30 days by IHC analysis; assay type: functional, organism-based; conditions: time 30.0 day
[16] = Stabilization of NRAS RNA G-quadruplex 5'-r(UGUGGGAGGGGCGGGUCUGGG)-3' (unknown origin) at 10 uM
SK-MEL-2 [17] = assay: Downregulation of phosphorylated ERK in human SK-MEL-2 cells expressing NRAS mutant at 1.5 uM by Western blot analysis; assay type: functional, cell-based; conditions: time <= 48.0 hrs, TDE = time-dependent effect
HEK293 = assay: Binding affinity to NRAS RNA G-quadruplex 5'-r(UGUGGGAGGGGCGGGUCUGGG)-3' (unknown origin) transfected in HEK293 cells assessed as decrease in NRAS […] upto 1.5 uM incubated for 24 hrs by Dual luciferase reporter assay; assay type: functional, cell-based
SK-MEL-2 [18] = assay: Downregulation of phosphorylated mTOR in human SK-MEL-2 cells expressing NRAS mutant at 1.5 uM by Western blot analysis; assay type: functional, cell-based; conditions: time <= 48.0 hrs, TDE = time-dependent effect
SK-MEL-2 [19] = assay: Downregulation of phosphorylated AKT in human SK-MEL-2 cells expressing NRAS mutant incubated for 48 hrs by Western blot analysis; assay type: functional, cell-based; conditions: dose <= 1.5 µM
SK-MEL-2 [20] = assay: Antiproliferative activity against human SK-MEL-2 cells assessed as inhibition of colony formation at 1.5 uM measured after 10 days by crystal violet staining based assay relative to control; assay type: functional; conditions: SK-MEL-2, 240 h, time 10 day
SK-MEL-2 [21] = assay: Disruption of DHX36/NRAS RNA G-quadruplex 5'-r(UGUGGGAGGGGCGGGUCUGGG)-3' in human SK-MEL-2 cells at 1.5 uM incubated for 24 hrs by RNA Immunoprecipitation assay; assay type: cell-based
SK-MEL-2 [22] = assay: Downregulation of phosphorylated MEK in human SK-MEL-2 cells expressing NRAS mutant incubated for 48 hrs by Western blot analysis; assay type: functional, cell-based; conditions: dose <= 1.5 µM
DNA = assay: Binding affinity to total DNA (unknown origin) by TO displacement assay; assay type: nucleic-acid assay
SK-MEL-2 [23] = assay: Downregulation of NRAS protein translation in human SK-MEL-2 cells incubated for 24 hrs by Western blot analysis; assay type: functional, cell-based; conditions: dose <= 1.5 µM
SK-MEL-2 [24] = assay: Cytotoxicity against human SK-MEL-2 cells expressing Tet-on NRAS Q61R assessed as cell growth inhibition; assay type: functional, cell-based
SK-MEL-2 [25] = assay: Induction of autophagy in human SK-MEL-2 cells assessed as […] at 1.5 uM measured upto 48 hrs by Western bot analysis; assay type: functional, cell-based
SK-MEL-2 [26] = assay: Antitumor activity against human SK-MEL-2 cells xenografted in BALB/c nude mouse assessed as reduction in tumor weight at 1 mg/kg/day, ip administered for 30 days by electronic caliper method; assay type: functional, organism-based; conditions: time 30.0 day
SK-MEL-2 [27] = assay: Cytotoxicity against human SK-MEL-2 cells expressing Tet-on NRAS Q61R assessed as cell growth inhibition in presence of doxycycline; assay type: functional, cell-based
SK-MEL-2 [28] = assay: Antitumor activity against human SK-MEL-2 cells xenografted in BALB/c nude mouse assessed as T/C ratio at 1 mg/kg/day, ip administered for 30 days relative to control; assay type: functional; conditions: time 30 day
[29] = Binding affinity to NRAS RNA G-quadruplex 5'-r(UGUGGGAGGGGCGGGUCUGGG)-3' (unknown origin) assessed as decrease in TO fluorescence at 0.25 uM by TO displacement assay
SK-MEL-2 [30] = assay: Antiproliferative activity against human SK-MEL-2 cells assessed as cell growth inhibition incubated for 24 hrs by EdU assay; assay type: functional, cell-based; conditions: SK-MEL-2, 24 h
SK-MEL-2 [31] = assay: Downregulation of KRAS protein level in human SK-MEL-2 cells upto 1.5 uM incubated for 48 hrs by Western blot analysis; assay type: functional, cell-based
SK-MEL-2 [32] = assay: Cytotoxicity against human SK-MEL-2 cells assessed as inhibition of cell viability treated for 72 hrs measured after 72 hrs; assay type: functional, cell-based; conditions: SK-MEL-2, 72 h
SK-MEL-2 [33] = assay: Cytotoxicity against human SK-MEL-2 cells expressing NRAS mutant assessed as cell growth inhibition upto 50 uM measured for 12 to 96 hrs by MTT assay; assay type: functional, cell-based; conditions: time 12-96 hrs
[34] = Toxicity in BALB/c mouse xenografted with human SK-MEL-2 cells assessed as change in body weight at 1 mg/kg/day, ip administered for 30 days; assay type: organism-based; conditions: in vivo, 720 h, time 30 day
SK-MEL-2 [35] = assay: Cytotoxicity against human SK-MEL-2 cells overexpressing Tet-on NRAS Q61R assessed as cell growth inhibition; assay type: functional, cell-based
[36] = Binding affinity to 5'-FAM-labeled to NRAS RNA G-quadruplex 5'-r(UGUGGGAGGGGCGGGUCUGGG)-3' (unknown origin) assessed as dissociation constant by fluorescence quenching assay
SK-MEL-2 [37] = assay: Cytotoxicity against human SK-MEL-2 cells upto 10 uM in presence of CQ; assay type: functional, cell-based
SK-MEL-2 [38] = assay: Antiproliferative activity against human SK-MEL-2 cells assessed as cell growth inhibition incubated for 12 hrs by EdU assay; assay type: functional, cell-based; conditions: SK-MEL-2, 12 h
SK-MEL-2 [39] = assay: Antitumor activity against human SK-MEL-2 cells xenografted in BALB/c nude mouse assessed as tumor growth inhibition at 1 mg/kg/day, ip administered for 30 days relative to control; assay type: functional; conditions: SK-MEL-2, 720 h, time 30 day, read-out: TGI
SK-MEL-2 [40] = assay: Induction of cell cycle arrest in human SK-MEL-2 cells assessed as accumulation at S phase at 1.5 uM measured after 24 hrs by PI staining based analysis; assay type: functional
RNA = assay: Binding affinity to total RNA (unknown origin) by TO displacement assay; assay type: nucleic-acid assay
[41] = Binding affinity to 3'-FAM-labeled to NRAS RNA G-quadruplex 5'-r(UGUGGGAGGGGCGGGUCUGGG)-3' (unknown origin) assessed as dissociation constant by fluorescence quenching assay
SK-MEL-2 [42] = assay: Suppression of NRAS protein translation in human SK-MEL-2 cells upto 1.5 uM incubated for 48 hrs by Western blot analysis; assay type: functional, cell-based
[43] = Disruption of DHX36/NRAS RNA G-quadruplex 5'-r(UGUGGGAGGGGCGGGUCUGGG)-3' (unknown origin) using RNA substrate incubated for 1 hr by ELISA method
SK-MEL-2 [44] = assay: Antiproliferative activity against human SK-MEL-2 cells assessed as cell growth inhibition incubated for 48 hrs by EdU assay; assay type: functional, cell-based; conditions: SK-MEL-2, 48 h
SK-MEL-2 [45] = assay: Downregulation of phosphorylated ERK in human SK-MEL-2 cells expressing NRAS mutant incubated for 48 hrs by Western blot analysis; assay type: functional, cell-based; conditions: dose <= 1.5 µM
[46] = Toxicity in BALB/c mouse xenografted with human SK-MEL-2 cells assessed as change in viscera pattern at 1 mg/kg/day, ip administered for 30 days by HE staining based analysis; assay type: organism-based; conditions: in vivo, 720 h, time 30 day
RNA [UNDEFINED MUTATION] = assay: Binding affinity to NRAS RNA mutant G-quadruplex 5'-r(UGUAAGAGAAGCGAGUCUGAG)-3' (unknown origin) by TO displacement assay; assay type: nucleic-acid assay
SK-MEL-2 [47] = assay: Cytotoxicity against human SK-MEL-2 cells upto 10 uM in presence of 3mA; assay type: functional, cell-based
SK-MEL-2 [48] = assay: Cytotoxicity against human SK-MEL-2 cells overexpressing Tet-on NRAS Q61R assessed as cell growth inhibition in presence of doxycycline; assay type: functional, cell-based
SK-MEL-2 [49] = assay: Induction of apoptosis in human SK-MEL-2 cells assessed as late apoptotic cells at 1.5 uM measured after 24 hrs by PI/FITC Annexin V staining based flow cytometry; assay type: functional, cell-based

CN(C)/N=N/c1[nH]cnc1C(N)=O [DACARBAZINE]
Activity (SK-MEL-2 [1]): Tde | Activity (SK-MEL-2 [2]): Active | inhibition in vivo at 10 mg/kg/day (SK-MEL-2 [3]): 57.7% | T/C (SK-MEL-2 [4]): 28.9%

CCCCCCCCN=c1ccn(CCCCCCCCCCn2ccc(=NCCCCCCCC)cc2)cc1.Cl.Cl [OCTENIDINE HYDROCHLORIDE]
Activity (SK-MEL-2 [5]): Active | inhibition (SK-MEL-2 [6]): Active | IC50 (SK-MEL-2 [7]): 2110 nM | Activity (SK-MEL-2 [8]): Tde | EC50 [9]: 1600 nM | IC50 (SK-MEL-2 [10]): 2100 nM | Activity (SK-MEL-2 [11]): Dose-Dependent Effect | IC50 (SK-MEL-2 [12]): 1340 nM | IC50 (SK-MEL-2 [13]): 2340 nM | IC50 (SK-MEL-2 [14]): 480 nM | Activity (SK-MEL-2 [15]): Active | Activity [16]: inactive | Activity (SK-MEL-2 [17]): Tde | Activity (HEK293): Active | Activity (SK-MEL-2 [18]): Tde | Activity (SK-MEL-2 [19]): Dose-Dependent Effect | inhibition at 1.5 µM (SK-MEL-2 [20]): 100% | Activity (SK-MEL-2 [21]): Active | Activity (SK-MEL-2 [22]): Dose-Dependent Effect | Activity (DNA): inactive | Activity (SK-MEL-2 [23]): Dose-Dependent Effect | IC50 (SK-MEL-2 [24]): 6300 nM | Activity (SK-MEL-2 [25]): Active | Activity (SK-MEL-2 [26]): Active | IC50 (SK-MEL-2 [27]): 12400 nM | T/C (SK-MEL-2 [28]): 38.5% | Activity [29]: Active | IC50 (SK-MEL-2 [30]): 1080 nM | Activity (SK-MEL-2 [31]): inactive | IC50 (SK-MEL-2 [32]): 460 nM | inhibition (SK-MEL-2 [33]): Active | Activity [34]: Non-Toxic | Activity (SK-MEL-2 [35]): Active | Kd [36]: 490 nM | Activity (SK-MEL-2 [37]): Active | IC50 (SK-MEL-2 [38]): 2050 nM | inhibition in vivo at 1 mg/kg/day (SK-MEL-2 [39]): 52.4% | Activity (SK-MEL-2 [40]): Active | Activity (RNA): Active | Kd [41]: 230 nM | Activity (SK-MEL-2 [42]): Active | IC50 [43]: 2400 nM | IC50 (SK-MEL-2 [44]): 490 nM | Activity (SK-MEL-2 [45]): Dose-Dependent Effect | Activity [46]: Non-Toxic | Activity (RNA [UNDEFINED MUTATION]): inactive | Activity (SK-MEL-2 [47]): Active | Activity (SK-MEL-2 [48]): Active | Activity (SK-MEL-2 [49]): Active
